Patent US20080261994A1, “CYCLOPROPANE COMPOUNDS AND PHARMACEUTICAL USE THEREOF” (Japan Tobacco Inc., priority 2003, published 2008)
Where two headings read alike, the source gives them in different places.

Tests used:
Format in all cases: biochemical
aggrecanase-1 = target: T1, aggrecanase-1 (Homo sapiens, UniProt O75173); assay: Aggrecanase-1 inhibitory action (Particle Assay, GAG release from aggrecan-containing polyacrylamide particles)
T1 sequence (O75173 213-837): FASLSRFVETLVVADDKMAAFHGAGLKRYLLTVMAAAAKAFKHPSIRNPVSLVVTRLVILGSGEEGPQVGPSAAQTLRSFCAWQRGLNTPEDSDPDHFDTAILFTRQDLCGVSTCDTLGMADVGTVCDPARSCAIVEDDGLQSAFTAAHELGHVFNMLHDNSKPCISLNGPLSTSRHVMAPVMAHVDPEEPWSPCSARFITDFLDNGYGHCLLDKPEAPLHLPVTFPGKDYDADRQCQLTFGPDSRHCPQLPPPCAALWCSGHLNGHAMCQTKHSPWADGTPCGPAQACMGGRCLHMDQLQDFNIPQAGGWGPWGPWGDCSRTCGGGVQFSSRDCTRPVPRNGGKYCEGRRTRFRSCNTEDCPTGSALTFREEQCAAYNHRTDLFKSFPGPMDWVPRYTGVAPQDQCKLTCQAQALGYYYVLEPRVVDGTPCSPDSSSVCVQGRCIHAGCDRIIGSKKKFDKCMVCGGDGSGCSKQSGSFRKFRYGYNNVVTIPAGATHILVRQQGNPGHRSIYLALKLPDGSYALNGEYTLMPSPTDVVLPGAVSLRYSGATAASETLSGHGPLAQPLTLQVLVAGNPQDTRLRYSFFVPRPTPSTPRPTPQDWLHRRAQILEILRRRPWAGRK
Summary of the method: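 Enzyme and compound incubated with aggrecan-containing polyacrylamide particles in Tris-HCl buffer at 37° C for 15 h. Released GAG in supernatant measured with 1,9-dimethylmethylene blue at 595 nm against chondroitin sulfate standard; % inhibition from enzyme-free and inhibitor-free wells, reported as TC50 (μM).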

MMP-1 = target: T2, MMP-1 (Homo sapiens, UniProt P03956); assay: MMP-1 inhibitory action (Type I collagen Activity Measurement kit, FITC-labeled collagen type I)
T2 sequence (P03956 100-469): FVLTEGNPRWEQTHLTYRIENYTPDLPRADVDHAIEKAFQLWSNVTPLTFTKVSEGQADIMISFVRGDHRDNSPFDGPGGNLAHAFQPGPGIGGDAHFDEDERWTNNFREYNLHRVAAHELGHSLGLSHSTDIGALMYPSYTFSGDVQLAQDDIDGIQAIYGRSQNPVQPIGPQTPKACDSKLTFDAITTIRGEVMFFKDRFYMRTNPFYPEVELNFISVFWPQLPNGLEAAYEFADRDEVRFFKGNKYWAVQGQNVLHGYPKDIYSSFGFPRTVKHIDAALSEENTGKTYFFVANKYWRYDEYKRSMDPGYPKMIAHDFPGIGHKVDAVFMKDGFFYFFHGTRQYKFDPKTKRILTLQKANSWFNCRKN

Recombinant Human MMP-13 = target: T3, Recombinant Human MMP-13 (Homo sapiens, UniProt P45452); assay: MMP-13 inhibitory activity (MMP-13 specific fluorescent substrate with quencher)
T3 construct: purchased R&D systems 511-MM
Summary of the method: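 Recombinant human MMP-13 with test compound, reaction started with quenched fluorogenic peptide 7-MCA-Pro-CHA-Gly-NVal-His-Ala-DPA in Tris-HCl buffer, 1 h at 25 °C, stopped with acetic acid. Fluorescence at Ex 325/Em 405 nm; % inhibition versus enzyme-free and inhibitor-free wells, reported as IC50 (μM).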

[1] = Experimental Example 1, read-out: IC50 AG1
[2] = Experimental Example 2, read-out: IC50 MMP1
[3] = Experimental Example 3, read-out: IC50 MMP13
[4] = aggrecanase-1 inhibitory action, read-out: IC50 AG1 (Experimental Example 1)
[5] = MMP-1 inhibitory action, FITC-labeled collagen type I, 37° C. for 3 hr, read-out: IC50 MMP1 (Experimental Example 2)
[6] = Recombinant Human MMP-13, fluorescent substrate, 25° C. for 1 h, read-out: IC50 MMP13 (Experimental Example 3)

`CC1[C@H](c2ccccc2)[C@]1(NS(=O)(=O)c1ccc(-c2cn(C)cn2)s1)C(=O)O` (stereo partly drawn) [Example 2-450] was tested, and the IC50 (aggrecanase-1; [1]) was under 1 µM, the IC50 (MMP-1; [2]) was at least 10 µM and the IC50 (Recombinant Human MMP-13; [3]) was under 1 µM.
`O=C(NCC1(c2ccccc2)CC1(NS(=O)(=O)c1ccc(-c2ccc(Cl)cc2)s1)C(=O)O)C1CC1` (stereo not drawn) [Example 2-379] showed an IC50 (aggrecanase-1; [1]) of under 1 µM, an IC50 (MMP-1; [2]) of at least 1 µM and an IC50 (Recombinant Human MMP-13; [3]) of under 1 µM.
In the case of `CNC(=O)CCc1ccc([C@H]2C[C@@]2(NS(=O)(=O)c2ccc(-c3cc(C(F)(F)F)on3)s2)C(=O)O)cc1` [Example 2-281], the IC50 (aggrecanase-1; [1]) is reported as under 0.1 µM, the IC50 (MMP-1; [2]) is reported as under 1 µM and the IC50 (Recombinant Human MMP-13; [3]) is reported as under 0.1 µM.
`O=C(Cc1cccc(C2CC2(NS(=O)(=O)c2ccc(-c3cc(C(F)(F)F)on3)s2)C(=O)O)c1)N1CCOCC1` (stereo not drawn) [Example 2-220] gave an IC50 (aggrecanase-1; [4]) of under 0.1 µM, an IC50 (MMP-1; [5]) of at least 1 µM and an IC50 (Recombinant Human MMP-13; [6]) of under 0.1 µM.
For `O=C(O)C1(NS(=O)(=O)c2cccs2)CC1c1ccccc1` (stereo not drawn) [Example 2-83], the IC50 (aggrecanase-1; [4]) was at least 10 µM, the IC50 (MMP-1; [5]) was at least 10 µM and the IC50 (Recombinant Human MMP-13; [6]) was at least 10 µM.
Work on `CN1CCN(C(=O)OCCCc2cccc(C3CC3(NS(=O)(=O)c3ccc(-c4cc(C(F)(F)F)on4)s3)C(=O)O)c2)CC1` (stereo not drawn) [Example 2-238] yielded an IC50 (aggrecanase-1; [4]) of under 1 µM, an IC50 (MMP-1; [5]) of at least 1 µM and an IC50 (Recombinant Human MMP-13; [6]) of under 0.1 µM.
`O=C(O)COc1cccc(C2CC2(NS(=O)(=O)c2ccc(-c3ccc(Cl)cc3)cc2)C(=O)O)c1` (stereo not drawn) [Example 1-119] gave an IC50 (aggrecanase-1; [4]) of under 0.1 µM, an IC50 (MMP-1; [5]) of at least 1 µM and an IC50 (Recombinant Human MMP-13; [6]) of under 0.1 µM.
With `CCC(=O)c1ccc(S(=O)(=O)NC2(C(=O)O)CC2c2ccccc2)s1` (stereo not drawn) [Example 2-116] the IC50 (aggrecanase-1; [4]) was at least 10 µM, the IC50 (MMP-1; [5]) was at least 10 µM and the IC50 (Recombinant Human MMP-13; [6]) was at least 10 µM.
With `O=C(O)C1(NS(=O)(=O)c2ccc(-c3cc(C(F)(F)F)on3)s2)CC1(CCCO)c1ccccc1` (stereo not drawn) [Example 2-248] the IC50 (aggrecanase-1; [4]) was under 0.1 µM, the IC50 (MMP-1; [5]) was at least 1 µM and the IC50 (Recombinant Human MMP-13; [6]) was under 1 µM.
In the case of `CN(C)C(=O)CCc1ccc([C@H]2C[C@@]2(NS(=O)(=O)c2ccc(-c3cc(C(F)(F)F)on3)s2)C(=O)O)cc1` [Example 2-282], the IC50 (aggrecanase-1; [1]) is reported as under 0.1 µM, the IC50 (MMP-1; [2]) is reported as under 1 µM and the IC50 (Recombinant Human MMP-13; [3]) is reported as under 0.1 µM.
Work on `O=C(c1ccc(Cl)cc1)N1CCN(S(=O)(=O)NC2(C(=O)O)CC2c2ccccc2)CC1` (stereo not drawn) [Example 2-159] yielded an IC50 (aggrecanase-1; [4]) of at least 10 µM, an IC50 (MMP-1; [5]) of at least 10 µM and an IC50 (Recombinant Human MMP-13; [6]) of at least 10 µM.
`COc1cc(-c2ccc(S(=O)(=O)N[C@@]3(C(=O)O)C[C@]3(C)c3ccccc3)s2)ccc1Cl` [Example 2-516] gave an IC50 (aggrecanase-1; [1]) of under 1 µM, an IC50 (MMP-1; [2]) of at least 1 µM and an IC50 (Recombinant Human MMP-13; [3]) of under 1 µM.
Work on `O=C(CSCC1(c2ccccc2)CC1(NS(=O)(=O)c1ccc(-c2ccc(Cl)cc2)s1)C(=O)O)N1CCOCC1` (stereo not drawn) [Example 2-359] yielded an IC50 (aggrecanase-1; [1]) of under 1 µM, an IC50 (MMP-1; [2]) of at least 1 µM and an IC50 (Recombinant Human MMP-13; [3]) of under 0.1 µM.
`O=C(O)C1(NS(=O)(=O)c2ccc(-c3ccc(Cl)cc3)s2)CC1c1cccc(CCO)c1` (stereo not drawn) [Example 2-109] was tested, and the IC50 (aggrecanase-1; [4]) was under 0.1 µM, the IC50 (MMP-1; [5]) was at least 10 µM and the IC50 (Recombinant Human MMP-13; [6]) was under 0.1 µM.
`O=C(NO)[C@]1(NS(=O)(=O)c2ccc(OCc3ccc(Cl)cc3Cl)cc2)[C@@H]2c3ccccc3C[C@@H]21` (relative stereo) [Example 2-13, (1R*,1aS*,6aS*)-1-[4-(2,4-dichloro-benzyloxy)-benzenesulfonylamino]-1,1a,6,6a-tetrahydro-cyclopropa[a]inden-1-carboxylic acid hydroxyamide] was tested, and the IC50 (aggrecanase-1; [4]) was under 0.1 µM, the IC50 (MMP-1; [5]) was at least 10 µM and the IC50 (Recombinant Human MMP-13; [6]) was under 0.1 µM.
Work on `O=C(O)C1(NS(=O)(=O)c2ccc(OCc3ccc(Cl)cc3Cl)cc2)C2Cc3ccccc3C21` (stereo not drawn) [Example 2-446] yielded an IC50 (aggrecanase-1; [1]) of at least 1 µM, an IC50 (MMP-1; [2]) of at least 10 µM and an IC50 (Recombinant Human MMP-13; [3]) of at least 1 µM.
Work on `CS(=O)(=O)CC1(c2ccccc2)CC1(NS(=O)(=O)c1ccc(-c2ccc(Cl)cc2)s1)C(=O)O` (stereo not drawn) [Example 2-440] yielded an IC50 (aggrecanase-1; [1]) of under 1 µM, an IC50 (MMP-1; [2]) of at least 10 µM and an IC50 (Recombinant Human MMP-13; [3]) of under 1 µM.
`O=C(O)C1(NS(=O)(=O)c2ccc(-c3ccc(Cl)cc3)s2)CC1c1ccccc1Oc1cccnc1` (stereo not drawn) [Example 2-24] gave an IC50 (aggrecanase-1; [4]) of under 1 µM, an IC50 (MMP-1; [5]) of at least 10 µM and an IC50 (Recombinant Human MMP-13; [6]) of under 1 µM.
Molecule `O=C(NO)C1(NS(=O)(=O)c2ccc(-c3cc(C(F)(F)F)on3)s2)C2CCc3ccccc3C21` (stereo not drawn) [Example 2-486] has an IC50 (aggrecanase-1; [1]) of under 1 µM, an IC50 (MMP-1; [2]) of under 1 µM and an IC50 (Recombinant Human MMP-13; [3]) of under 0.1 µM.
